Common to all, as to type: cell-based
Experiment [1] has as its system N-linked glycosylation (OST) in CHO-ER-LucT cells. The experiment in a line: CHO-ER-LucT luminescence assay for inhibition of N-linked glycosylation. Particulars: for Emax: 24 h, [compound's fold change-1.0 (DMSO)]/[NGI-1 fold change-1.0 (DMSO)]*100, read-out: Max activity (% NGI-1); for AC50: CHO-ER-LucT cells, 24 hrs exposure, seven-point dose dilution, luminescence. How it is done: The CHO-ER-LucT cells have been previously described (Contessa et al., 2010, Clinical Cancer Research, 16(12):3205-14) and are used for testing analog IC50 for inhibition of N-linked glycosylation in 96 or 384 well plate format. In these cells induction of luminescence is dependent on inhibition of glycosylation (and OST inhibition), and is determined after 24 hrs of exposure to the analog following the addition of luciferin substrate. The luminescent signal is then quantified using standard plate readers that detect luminescence (e.g., Biotek synergy). Experiments are performed over a seven-point dose dilution to generate dose response data and to identify IC50 values and maximal activity compared to controls. Data is transformed to log 10 values to generate a sigmoidal shaped dose response curve and fitted using nonlinear regression (curve fit) in GraphPad Prism7.
All HL compounds were tested in CHO-ER-LucT cells. IC50 (AC50) was estimated in following method: Concentration X is converted to logarithm (log10) to generate sigmoidal shape curve and dose response curve is generated using Nonlinear regression (curve fit) in Prism. EC50 (AC50) is calculated using log(agonist) vs response-(three parameters)] which uses standard Hill slope (=1).
Max activity: [compound's fold change−1.0 (DMSO)]/[NGI−1 fold change−1.0 (DMSO)]*100(%) (Eq. 1)

Experiment [2] deals with N-linked glycosylation in D54. The experiment in a line: ER-LucT type AC50 determination in D54 cells (NGI-1 only). Particulars: Homo sapiens.
Experiment [3] deals with protein glycosylation in HEK293 cells. As to the kind of experiment: Western blots of protein glycoforms after OST inhibitor treatment, HEK293 cells. Particulars: 24 hrs, Western blot, FIG. 1. How it is done: FIG. 1 illustrates Western blots of protein glycoforms after OST inhibitor treatment in vitro. HEK293 cells were treated with each inhibitor for 24 hrs at indicated concentrations. Changes in glycosylation are shown by reduced molecular weight.
(§1) Inhibition of glycosylation is then confirmed by analysis of glycoprotein size using western blots. Increased gel mobility of proteins such as the EGFR or Halo3N indicate loss of protein glycosylation (FIGS. 1-2).

Experiment [4] concerns STT3A (HEK293 STT3B KO cells). As to the kind of experiment: Western blots of protein glycoforms, HEK293 cells with knockout of STT3B. Particulars: 24 hrs, Western blot, FIG. 2, indicating enhanced specificity for STT3A. How it is done:
FIG. 2 illustrates Western blots of protein glycoforms after OST inhibitor treatment in vitro using HEK293 cells with knockout (KO) of either STT3A or STT3B. Cells were treated with each inhibitor for 24 hrs at indicated concentrations. Changes in glycosylation are shown by reduced molecular weight.
as §1

In the case of `Cc1cnc(NC(=O)c2cc(S(=O)(=O)N(C)C)ccc2N2CCCC2)s1` [NGI-1, 5-(N,N-Dimethylsulfamoyl)-N-(5-methylthiazol-2-yl)-2-(pyrrolidin-1-yl)benzamide, reference compound], the Emax in experiment [1] came out at 100%. Further, the AC50 is 1.11 µM in experiment [1] and 0.712 µM in experiment [2].

In the case of `CCc1cnc(NC(=O)c2cc(S(=O)(=O)N3CCOCC3)ccc2N(C)C2CCCC2)s1` [Example 4, 2-(cyclopentyl(methyl)amino)-N-(5-ethylthiazol-2-yl)-5-(morpholinosulfonyl)benzamide], in experiment [1], the Emax came out at 206% and the AC50 was determined as 0.087 µM. Besides, the “Changes in glycosylation (reduced molecular weight of protein glycoforms)” value in experiment [3] is “more potent effect”. Moreover, the “Effect on glycosylation in STT3B KO cells” value in experiment [4] was “more potent effect”.

For the compound `CCc1cnc(NC(=O)c2cc(S(=O)(=O)N3CCOCC3)ccc2N(C)CC2CC2)s1` [Example 3, 2-((cyclopropylmethyl)(methyl)amino)-N-(5-ethylthiazol-2-yl)-5-(morpholinosulfonyl)benzamide], in experiment [1], the Emax is 215% and the AC50 stood at 0.059 µM. For the same compound, the “Changes in glycosylation (reduced molecular weight of protein glycoforms)” value in experiment [3] is listed as “more potent effect”. Moreover, the “Effect on glycosylation in STT3B KO cells” value in experiment [4] is “more potent effect”.

For the compound `CCc1cnc(NC(=O)c2cc(S(=O)(=O)N(C)C)ccc2N(C)C2CCC2)s1` [Example 15, 2-(cyclobutyl(methyl)amino)-5-(N,N-dimethylsulfamoyl)-N-(5-ethylthiazol-2-yl)benzamide], in experiment [1], the Emax turned out to be 141% and the AC50 was found to be 0.252 µM.

Take `Cc1nc(NC(=O)c2cc(S(=O)(=O)N(C)C)c(F)cc2N2CCCC2)sc1C` [Example 32, 5-(N,N-dimethylsulfamoyl)-N-(4,5-dimethylthiazol-2-yl)-4-fluoro-2-(pyrrolidin-1-yl)benzamide]: in experiment [1], the Emax worked out at 52.6% and the AC50 came out at 3.84 µM.

Turning to `Cc1csc(NC(=O)c2cc(S(=O)(=O)N(C)C)ccc2N2CCC(F)(F)C2)n1` [Example 35, 2-(3,3-difluoropyrrolidin-1-yl)-5-(N,N-dimethylsulfamoyl)-N-(4-methylthiazol-2-yl)benzamide], in experiment [1], the Emax amounted to 70% and the AC50 turned out to be 3 µM.

Turning to `CCc1cnc(NC(=O)c2cc(S(=O)(=O)N3CCOCC3)c(F)cc2N(C)CC2CC2)s1` [Example 30, 2-((cyclopropylmethyl)(methyl)amino)-N-(5-ethylthiazol-2-yl)-4-fluoro-5-(morpholinosulfonyl)benzamide], in experiment [1], the Emax turned out to be 96.4% and the AC50 amounted to 0.371 µM.

The values above are taken from patent publication US20240010641A1, “N-Linked Glycosylation Inhibitors and Methods of Using Same” (YALE UNIVERSITY, priority 2020, published 2024).
